ChEMBL document CHEMBL3259747, “Small chemicals with inhibitory effects on PtdIns(3,4,5)P3 binding of Btk PH domain” (Bioorg Med Chem Lett, 2014)

Tests used:
[1] = target: T1, Tyrosine-protein kinase BTK (Homo sapiens, UniProt Q06187); assay: Inhibition of PtdIns(3,4,5)P3 binding to Btk PH domain (unknown origin) expressed in Escherichia coli BL21(DE3) RIL cells at 100 uM by surface plasmon resonance assay relative to untreated control
Epsin-1 = target: T2, Epsin-1 (Homo sapiens, UniProt Q9Y6I3); assay: Inhibition of PtdIns(4,5)P2 binding to Epsin1 ENTH domain (unknown origin)
T2 sequence (Q9Y6I3 whole entry): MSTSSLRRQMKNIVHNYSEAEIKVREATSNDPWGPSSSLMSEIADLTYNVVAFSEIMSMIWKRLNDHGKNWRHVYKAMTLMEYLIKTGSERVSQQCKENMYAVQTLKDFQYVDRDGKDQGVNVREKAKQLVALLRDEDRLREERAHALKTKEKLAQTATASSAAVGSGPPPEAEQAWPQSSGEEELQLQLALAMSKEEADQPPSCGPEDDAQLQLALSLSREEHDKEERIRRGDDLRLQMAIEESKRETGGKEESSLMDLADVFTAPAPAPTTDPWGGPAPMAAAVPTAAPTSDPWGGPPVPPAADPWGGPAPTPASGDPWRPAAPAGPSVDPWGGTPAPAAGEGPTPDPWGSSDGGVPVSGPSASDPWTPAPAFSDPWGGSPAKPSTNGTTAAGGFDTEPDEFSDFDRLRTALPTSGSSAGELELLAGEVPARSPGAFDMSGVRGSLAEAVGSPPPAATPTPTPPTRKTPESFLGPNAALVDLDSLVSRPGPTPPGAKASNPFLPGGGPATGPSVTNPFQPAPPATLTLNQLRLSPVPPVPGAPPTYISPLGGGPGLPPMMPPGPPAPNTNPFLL

[2] = target: T1, Tyrosine-protein kinase BTK; assay: Inhibition of PtdIns(3,4,5)P3 binding to Btk PH domain (unknown origin) expressed in Escherichia coli BL21(DE3) RIL cells by surface plasmon resonance assay relative to untreated control

T1 sequence (Q06187 whole entry, the tested form may be a part): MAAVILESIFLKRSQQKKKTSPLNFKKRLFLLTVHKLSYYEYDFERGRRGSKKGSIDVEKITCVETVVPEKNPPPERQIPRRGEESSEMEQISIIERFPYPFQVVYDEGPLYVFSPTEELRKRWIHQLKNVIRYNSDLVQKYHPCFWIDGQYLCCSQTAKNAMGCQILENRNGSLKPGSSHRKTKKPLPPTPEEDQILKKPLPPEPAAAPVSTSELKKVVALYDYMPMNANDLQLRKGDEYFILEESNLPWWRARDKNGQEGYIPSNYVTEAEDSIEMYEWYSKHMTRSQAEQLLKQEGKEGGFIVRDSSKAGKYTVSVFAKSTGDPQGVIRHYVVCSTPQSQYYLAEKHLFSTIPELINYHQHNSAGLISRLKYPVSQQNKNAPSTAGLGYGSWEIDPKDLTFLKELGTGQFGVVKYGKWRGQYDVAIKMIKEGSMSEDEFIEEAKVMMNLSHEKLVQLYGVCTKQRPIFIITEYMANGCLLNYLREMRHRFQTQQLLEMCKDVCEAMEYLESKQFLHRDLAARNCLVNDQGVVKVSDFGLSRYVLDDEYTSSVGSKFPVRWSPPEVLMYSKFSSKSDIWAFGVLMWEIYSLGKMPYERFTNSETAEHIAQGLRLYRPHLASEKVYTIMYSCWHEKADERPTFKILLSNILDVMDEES

SMILES: O=C1[C@@H]2C[C@@H]3O[C@]2(C(O)C3OP(=O)(O)O)[C@@H](P(=O)(O)O)N1Cc1ccccc1 (stereo partly drawn)
- inhibition [1]: 11%

SMILES: CC1(C(=O)O)NN=C(P(=O)(O)O)C1C(=O)O (stereo not drawn)
- inhibition [1]: 64%

SMILES: CC1(C(=O)O)CC([PH](=O)O)=NN1 (stereo not drawn)
- inhibition [1]: 71%

SMILES: CCOP(=O)(O)C1=NNC(C)(C(=O)O)C1 (stereo not drawn)
- inhibition [1]: 41%

SMILES: O=C1[C@@H]2C[C@H]3CC[C@@]2(O3)[C@@H](P(=O)(O)O)N1Cc1ccccc1
- inhibition [1]: 38%

SMILES: O=C1[C@@H]2C[C@@H]3O[C@]2(C(O)C3O)[C@@H](P(=O)(O)O)N1Cc1ccccc1 (stereo partly drawn)
- inhibition [1]: 13%

SMILES: O=C(O)c1cc(P(=O)(O)O)n[nH]1
- IC50 (Epsin-1): 46 µM
- IC50 [2]: 17 µM
- inhibition [1]: 95%

SMILES: CCOP(=O)(O)c1n[nH]c(C(=O)O)c1C(=O)O
- inhibition [1]: 34%

SMILES: COP(=O)(O)c1cc(C(=O)O)[nH]n1
- inhibition [1]: 48%

SMILES: CCOP(=O)(O)c1cc(C(=O)O)[nH]n1
- inhibition [1]: 37%

SMILES: COP(=O)(O)C1=NNC(C)(C(=O)O)C1 (stereo not drawn)
- inhibition [1]: 52%
